Patent US12351571B2, “Substituted quinoxaline compounds as inhibitors of FGFR tyrosine kinases” (ARRAY BIOPHARMA INC., priority 2018, dated 2025)

Target: human wild type FGFR3 (Homo sapiens (Human), UniProt P22607)
Assay: FGFR3 pERK Cell Assay
Assay type: cell-based
Conditions: HEK-293 cells, 1 hour compound, 100 ng/ml human FGF-acidic; maximum concentration 5 μM
Experimental: HEK-293 cells transfected with dox-inducible human wild type FGFR3 (SEQ ID NO: 5) were plated in a collagen or poly-D-lysine coated 96 well flat bottom plates at 4×10^5 cells/well in complete DMEM medium containing 10% FBS and 1 μg/ml doxycycline and allowed to attach for 24 h at 37° C., 5% CO2. Cells were treated with compound using 1:3 serial dilutions with a maximum final concentration of 5 μM. Compound was incubated on cells for 1 hour at 37° C., 5% CO2. Cells were then stimulated with a final concentration of 100 ng/ml human FGF-acidic (R&D Systems Cat number 232-FA/CF) for 5 minutes at 37° C., 5% CO2. Medium was removed, and cells were lysed with lysis buffer containing phosphatase and protease inhibitors. Phospho ERK1/2 was measured using the Meso Scale Discovery sandwich assay (Meso Scale Discovery cat. no. K151DWD). The assay captures phospho ERK1/2 and detects with a sulfo-tagged total ERK1/2 antibody. The chemiluminescent signal was read on the Sector Imager Plate reader. 100 POC was determined using no test compounds and 0 POC was determined using a control compound. The POC values were fit to a 4-parameter logistic curve as a function of the concentration of the compound, and the IC50 value is the point where the curve crosses 50 POC.

human wild type FGFR3, sequence (P22607 23-806): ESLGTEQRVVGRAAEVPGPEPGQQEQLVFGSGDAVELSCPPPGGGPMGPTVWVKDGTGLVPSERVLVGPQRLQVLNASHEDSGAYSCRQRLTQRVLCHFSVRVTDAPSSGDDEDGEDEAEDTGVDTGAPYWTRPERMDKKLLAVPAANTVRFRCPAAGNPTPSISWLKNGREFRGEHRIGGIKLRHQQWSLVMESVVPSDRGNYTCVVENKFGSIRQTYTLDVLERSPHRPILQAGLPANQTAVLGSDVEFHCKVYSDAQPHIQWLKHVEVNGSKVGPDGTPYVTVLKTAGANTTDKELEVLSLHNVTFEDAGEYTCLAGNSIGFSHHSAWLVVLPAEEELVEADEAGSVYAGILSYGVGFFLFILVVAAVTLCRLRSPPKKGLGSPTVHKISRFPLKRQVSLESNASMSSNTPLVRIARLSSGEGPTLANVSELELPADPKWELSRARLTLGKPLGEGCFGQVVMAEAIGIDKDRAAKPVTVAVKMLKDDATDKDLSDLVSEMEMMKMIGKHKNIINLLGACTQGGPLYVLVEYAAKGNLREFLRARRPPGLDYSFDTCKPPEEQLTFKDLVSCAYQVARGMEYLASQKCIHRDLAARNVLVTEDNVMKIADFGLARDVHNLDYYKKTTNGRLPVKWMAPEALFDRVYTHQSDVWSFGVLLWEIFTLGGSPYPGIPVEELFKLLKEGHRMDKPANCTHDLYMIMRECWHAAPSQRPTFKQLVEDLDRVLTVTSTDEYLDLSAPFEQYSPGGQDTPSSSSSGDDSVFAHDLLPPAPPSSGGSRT

Molecule `C=CC(=O)N1CC(C(=O)N2CCC(n3ncc(-c4cnc5ccc(Nc6cc(OC)cc(OC)c6)cc5n4)c3C)CC2)C1` [Example 18, 1-(3-(4-(4-(7-((3,5-dimethoxyphenyl)amino)-quinoxalin-2-yl)-5-methyl-1H-pyrazol-1-yl)piperi-dine-1-carbonyl)azetidin-1-yl)prop-2-en-1-one] has an IC50 of 216 nM.

For `C=CC(=O)N1CC(C(=O)N2CC(n3cc(-c4cnc5ccc(Nc6cc(OC)cc(OC)c6)cc5n4)cn3)C2)C1` [Example 16, 1-(3-(3-(4-(7-((3,5-dimethoxyphenyl)amino)-quinoxalin-2-yl)-1H-pyrazol-1-yl)azetidine-1-carbonyl)azetidin-1-yl)-prop-2-en-1-one], the IC50 was 397 nM.

Work on `C=CC(=O)N1CC(F)(C(=O)N2CCN(c3ccc(-c4cnc5ccc(Nc6cc(OC)cc(OC)c6)cc5n4)cn3)CC2)C1` [Example 8, 1-(3-(4-(5-(7-((3,5-dimethoxyphenyl)amino)-quinoxalin-2-yl)pyridin-2-yl)piperazine-1-carbonyl)-3-fluoroazetidin-1-yl)-prop-2-en-1-one] yielded an IC50 of 154 nM.

Work on `C=CC(=O)N1CC(C#N)(C(=O)N2CCC(n3cc(-c4cnc5ccc(Nc6cc(OC)cc(OC)c6)cc5n4)cn3)CC2)C1` [Example 12, 1-acryloyl-3-(4-(4-(7-((3,5-dimethoxyphenyl)-amino)quinoxalin-2-yl)-1H-pyrazol-1-yl)-piperidine-1-carbonyl)-azetidine-3-carbonitrile] yielded an IC50 of 22 nM.

In the case of `C=CC(=O)N1CC(F)(C(=O)N2CCN(c3cc(C)c(-c4cnc5ccc(Nc6cc(OC)cc(OC)c6)cc5n4)cn3)CC2)C1` [Example 15, 1-(3-(4-(5-(7-((3,5-dimethoxyphenyl)amino)-quinoxalin-2-yl)-4-methylpyridin-2-yl)-piperazine-1-carbonyl)-3-fluoroazetidin-1-yl)prop-2-en-1-one], the IC50 is reported as 528 nM.

`C=CC(=O)N1CC(C(=O)N2CC[C@@H](n3cc(-c4cnc5ccc(Nc6cc(OC)cc(OC)c6)cc5n4)cn3)C2)C1` [Example 21, (R)-1-(3-(3-(4-(7-((3,5-dimethoxyphenyl)amino)-quinoxalin-2-yl)-1H-pyrazol-1-yl)pyrrolidine-1-carbonyl)azetidin-1-yl)prop-2-en-1-one] was tested, and the IC50 was 390 nM.

With `COc1cc(Nc2ccc3ncc(-c4cnn(C5CCN(C(=O)C6(C#N)CN(C(=O)/C=C/CN(C)C)C6)CC5)c4)nc3c2)cc(OC)c1` [Example 11, (E)-3-(4-(4-(7-((3,5-dimethoxyphenyl)amino)-quinoxalin-2-yl)-1H-pyrazol-1-yl)piperidine-1-carbonyl)-1-(4-(dimethyl-amino)but-2-enoyl)-azetidine-3-carbonitrile] the IC50 was 19 nM.

`COc1cc(Nc2ccc3ncc(-c4cnn([C@@H]5CCN(C(=O)C6(F)CN(C(=O)/C=C/CN(C)C)C6)C5)c4)nc3c2)cc(OC)c1` [Example 19, (R,E)-1-(3-(3-(4-(7-((3,5-dimethoxyphenyl)amino)-quinoxalin-2-yl)-1H-pyrazol-1-yl)pyrrolidine-1-carbonyl)-3-fluoro-azetidin-1-yl)-4-(dimethyl-amino)but-2-en-1-one] showed an IC50 of 114 nM.

`COc1cc(Nc2ccc3ncc(-c4cnn(C5CCN(C(=O)C6CN(C(=O)/C=C/CN(C)C)C6)CC5)c4)nc3c2)cc(OC)c1` [Example 9, (E)-1-(3-(4-(4-(7-((3,5-dimethoxyphenyl)amino)-quinoxalin-2-yl)-1H-pyrazol-1-yl)piperidine-1-carbonyl)azetidin-1-yl)-4-(dimethylamino)but-2-en-1-one] was tested, and the IC50 was 184 nM.

Molecule `COc1cc(Nc2ccc3ncc(-c4cnn([C@@H]5CCN(C(=O)C6CN(C(=O)/C=C/CN(C)C)C6)C5)c4)nc3c2)cc(OC)c1` [Example 20, (R,E)-1-(3-(3-(4-(7-((3,5-dimethoxyphenyl)amino)-quinoxalin-2-yl)-1H-pyrazol-1-yl)pyrrolidine-1-carbonyl)azetidin-1-yl)-4-(dimethylamino)but-2-en-1-one] has an IC50 of 2740 nM.
